Experimental data published in article PMC8351955, “Targeting Mycobacterium tuberculosis response to environmental cues for the development of effective antitubercular drugs” (PLoS Biology, 2021).
Where “and” joins values, the source holds several entries; their conditions need not be identical. Equal values may be shown once. Read-outs that look alike come from different tables or passages of the source.

Columns and labels:
Human plasma stability = format: in vitro ADME; details: 5-h incubation
Description: (§1) Assays examining mouse and human liver microsomal stability, kinetic aqueous solubility, mouse and human plasma protein binding and stability, and human cytochrome P450 inhibition characteristics of the compounds were run by BioDuro (San Diego, CA), using standard protocols as previously described [37]. hERG inhibition assays were also performed by BioDuro.

Mtb-infected J774 cells = details: 10 μM, 24 hours, 5 days post-infection
[1] = system: macrophage phagosomal proteolytic activity in BMDMs; assay: Phagosomal maturation assay, DQ-BSA/AF594 beads (proteolysis readout); format: cell-based, mouse; details: for DQ-BSA/AF594, Average: average of 4 replicates
Description: Carboxyfluorescein (pH readout), DQ-BSA/Alexa Fluor 594 (AF594) (proteolysis readout), and BAC/AF594 (Cl^− readout) beads were generated essentially as previously described, except that 10,10′-Bis[3-carboxylpropyl]-9,9′-biacridinium dinitrate di-NHS ester (BAC-SE) was purchased from emp Biotech LLC. BMDMs were isolated from C57BL/6J mice (The Jackson Laboratory) and maintained as described above. A quantity of 2 × 10^5 macrophages/well were seeded into 96-well clear bottom black plates and utilized in assays 1 to 2 days post-seeding. […] Assay buffer consisted of PBS (pH 7.2), supplemented with 5% FBS, 5 mM dextrose, 1 mM CaCl2, 2.7 mM KCl, and 0.5 mM MgCl2 in the case of assays with the carboxyfluorescein or DQ-BSA/AF594 beads. For assays with the BAC/AF594 beads, assay buffer consisted of PBS (pH 7.2), supplemented with 5% FBS, 5 mM dextrose, 1 mM calcium acetate, 1.35 mM K2SO4, and 0.5 mM MgSO4 [9]. Sensor beads at approximately 2 to 5 beads/macrophage in appropriate assay buffer were finally added, with data acquisition on a Biotek Synergy H1 microplate reader with bottom read signal detection started within 2 to 3 minutes of bead addition. Excitation/emission wavelengths were 450 nm/520 nm and 490 nm/520 nm for carboxyfluorescein, 490 nm/520 nm for DQ-BSA, 365 nm/505 nm for BAC, and 590 nm/617 nm for AF594. Each experiment was run with a total of 3 to 5 replicate wells/condition, with temperature maintained at 37°C throughout the assay. Wells were read every 2 minutes for 2 hours for the carboxyfluorescein bead assays, every 2 minoutes for 4 hours for the DQ-BSA/AF594 bead assays, and every 1 minute for 2 hours for the BAC/AF594 bead assays. Analyses of the results were performed as previously described.

[2] = Pharmacokinetic assay, single oral dose in CD-1 mice; format: in vivo; details: female; for AUC(0-t): mouse, plasma, CD-1 mice, read-out: plasma AUC0–5h
Description: Blood samples were collected in K2EDTA-coated tubes predose, 0.5, 1, 3, and 5 hours post-dose, placed on ice, and centrifuged to recover plasma. The recovered plasma was kept at −80°C as needed prior to analysis, which was performed as previously described. In brief, a Sciex Applied Biosystems Qtrap 4000 triple-quadrupole mass spectrometer coupled to an Agilent 1260 HPLC system was used for HPLC coupled to tandem mass spectrometry (LC–MS/MS) quantitative analysis of the samples, with chromatography attained using an Agilent Zorbax SB-C8 column (2.1 × 30 mm; particle size, 3.5 μm) and a reverse-phase gradient elution. The aqueous mobile phase consisted of Milli-Q deionized water with 0.1% formic acid (A), while the organic mobile phase was 0.1% formic acid in acetonitrile (B). The gradient setup was as follows: 5% to 90% B over 2 minutes, 1 minute at 90% B, then an immediate drop to 5% B and an additional 1 minute at 5% B. Quantification of molecules was carried out via multiple reaction monitoring of parent/daughter transitions in electrospray positive ionization mode, and sample analyses accepted if quality control and standard samples had concentrations within 20% of the nominal concentration. Preparation of compounds for generation of standard curves and quality control spiking solutions were performed as previously described. Data were processed using Analyst software (Version 1.6.2; Applied Biosystems Sciex, Framingham, MA).

[3] = Human plasma protein binding; format: in vitro ADME
[4] = Mouse liver microsomal stability; format: in vitro ADME; details: mouse liver microsomes; read-out: half-life (t1/2) in mouse liver microsomes
Description: as §1

Mtb = Mtb growth assay in standard 7H9 medium (OD600); details: for OD600: Fig. 2F
Description: Bacterial growth was tracked by measuring OD600 every 3 days for 12 days. […] Bacterial growth was tracked by measurement of OD600 every 3 days over 12 days.

Structure (SMILES): CCSc1ncc(CN2CCN(c3nc4ccccc4o3)CC2)cn1 [C6, 2-(4-((2-(ethylthio)pyrimidin-5-yl)methyl)piperazin-1-yl)benzo[d]oxazole]
- remaining at 5 h (Human plasma stability): 94.6%
- Accumulation in Mtb-infected J774 cells (Mtb-infected J774 cells): confirmed C6 accumulation
- Effect on macrophage phagosomal proteolytic activity ([1]; 10 μM, uninfected BMDMs): did not affect
- DQ-BSA/AF594, single replicates (Rep 1-4) ([1]; Time 0 minutes): 0.14 and 0.1347 and 0.1424 and 0.1346
- DQ-BSA/AF594, single replicates (Rep 1-4) ([1]; Time 2 minutes): 0.135 and 0.1275 and 0.1349 and 0.128
- DQ-BSA/AF594, single replicates (Rep 1-4) ([1]; Time 4 minutes): 0.1412 and 0.1359 and 0.1424 and 0.1318
- DQ-BSA/AF594, Average ([1]; time 0 minutes): 0.1379
- DQ-BSA/AF594, Average ([1]; time 2 minutes): 0.1314
- DQ-BSA/AF594, Average ([1]; time 4 minutes): 0.1378
- DQ-BSA/AF594, single replicates (Rep 1-4) ([1]; time 6 minutes): 0.1434 and 0.1398 and 0.1395 and 0.1344
- DQ-BSA/AF594, Average ([1]; time 6 minutes): 0.1393
- DQ-BSA/AF594, single replicates (Rep 1-4) ([1]; time 8 minutes): 0.1391 and 0.1428 and 0.1447 and 0.1317
- DQ-BSA/AF594, Average ([1]; time 8 minutes): 0.1396
- DQ-BSA/AF594, single replicates (Rep 1-4) ([1]; time 10 minutes): 0.146 and 0.145 and 0.1422 and 0.1332
- DQ-BSA/AF594, Average ([1]; time 10 minutes): 0.1416
- DQ-BSA/AF594, single replicates (Rep 1-4) ([1]; time 12 minutes): 0.1443 and 0.1415 and 0.1428 and 0.1313
- DQ-BSA/AF594, Average ([1]; time 12 minutes): 0.14
- DQ-BSA/AF594, single replicates (Rep 1-4) ([1]; time 14 minutes): 0.1461 and 0.1457 and 0.1422 and 0.1412
- DQ-BSA/AF594, Average ([1]; time 14 minutes): 0.1438
- DQ-BSA/AF594, single replicates (Rep 1-4) ([1]; time 16 minutes): 0.1457 and 0.1504 and 0.1476 and 0.1404
- DQ-BSA/AF594, Average ([1]; time 16 minutes): 0.146
- DQ-BSA/AF594, single replicates (Rep 1-4) ([1]; time 18 minutes): 0.152 and 0.1539 and 0.1536 and 0.1434
- DQ-BSA/AF594, Average ([1]; time 18 minutes): 0.1507
- DQ-BSA/AF594, single replicates (Rep 1-4) ([1]; time 20 minutes): 0.1544 and 0.1557 and 0.1584 and 0.1468
- DQ-BSA/AF594, Average ([1]; time 20 minutes): 0.1538
- DQ-BSA/AF594, single replicates (Rep 1-4) ([1]; time 22 minutes): 0.1647 and 0.1693 and 0.1637 and 0.1551
- DQ-BSA/AF594, Average ([1]; time 22 minutes): 0.1632
- DQ-BSA/AF594, single replicates (Rep 1-4) ([1]; time 24 minutes): 0.178 and 0.18 and 0.1857 and 0.1719
- DQ-BSA/AF594, Average ([1]; time 24 minutes): 0.1789
- DQ-BSA/AF594, single replicates (Rep 1-4) ([1]; time 26 minutes): 0.2064 and 0.2113 and 0.205 and 0.1944
- DQ-BSA/AF594, Average ([1]; time 26 minutes): 0.2043
- DQ-BSA/AF594, single replicates (Rep 1-4) ([1]; time 28 minutes): 0.2506 and 0.2446 and 0.2477 and 0.2339
- DQ-BSA/AF594, Average ([1]; time 28 minutes): 0.2442
- DQ-BSA/AF594, single replicates (Rep 1-4) ([1]; time 30 minutes): 0.3139 and 0.29 and 0.311 and 0.2857
- DQ-BSA/AF594, Average ([1]; time 30 minutes): 0.3002
- Kp at 5 h ([2]; CD-1, mouse, 5-hour partitioning between plasma and lung, 25 mg/kg po, read-out: Clung/Cplasma): 0.86
- AUC(0-t) ([2]; single 5 mg/kg po dose): 5480 ng·h/mL
- AUC(0-t) ([2]; single 25 mg/kg po dose): 25700 ng·h/mL
- fraction unbound [3]: 0.008
- half-life [4]: 48.5 min
- Effect on Mtb growth in standard 7H9 media (Mtb; 10 μM, OD600 over 12 days): no effect
- OD600 (Mtb; day 3, average): 0.1933
- OD600 (Mtb; day 3, individual replicates): 0.2 (2×) and 0.18
- OD600 (Mtb; day 6, average): 0.3733
- OD600 (Mtb; day 6, individual replicates): 0.38 (2×) and 0.36
- OD600 (Mtb; day 9, average): 0.4933
- OD600 (Mtb; day 9, individual replicates): 0.5 (2×) and 0.48
- OD600 (Mtb; day 12, average): 0.6333
- OD600 (Mtb; day 12, individual replicates): 0.64 (2×) and 0.62
